The source made the active and inactive calls.
What was measured:
[1] = target: T1, Sentrin-specific protease 8 (Homo sapiens, UniProt Q96LD8); assay: inhibition of human SENP8 cleavage activity – biochemical, luminescence, SAR follow-up (AID 504501); type: functional
T1 sequence (Q96LD8 whole entry): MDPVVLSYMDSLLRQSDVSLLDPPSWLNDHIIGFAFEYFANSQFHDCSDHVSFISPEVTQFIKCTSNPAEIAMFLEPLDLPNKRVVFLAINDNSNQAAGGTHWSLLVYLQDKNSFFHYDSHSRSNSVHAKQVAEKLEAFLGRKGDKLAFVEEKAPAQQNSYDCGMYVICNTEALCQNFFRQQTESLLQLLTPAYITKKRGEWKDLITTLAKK

[2] = target: T1, Sentrin-specific protease 8; assay: inhibition of sentrin protease 8 – biochemical, luminescence, set 2, SAR follow-up (AID 588601); type: functional
Caspase-3 = target: T2, Caspase-3 (Homo sapiens, UniProt P42574); assay: SAR Analysis of small molecule inhibitors of Sentrin-specific proteases (SENPs) using a Caspase-3 Selectivity assay. [Related pubchem assays (depositor defined):AID2540, AID2599, AID434973, AID489001]; type: functional
T2 sequence (P42574 whole entry): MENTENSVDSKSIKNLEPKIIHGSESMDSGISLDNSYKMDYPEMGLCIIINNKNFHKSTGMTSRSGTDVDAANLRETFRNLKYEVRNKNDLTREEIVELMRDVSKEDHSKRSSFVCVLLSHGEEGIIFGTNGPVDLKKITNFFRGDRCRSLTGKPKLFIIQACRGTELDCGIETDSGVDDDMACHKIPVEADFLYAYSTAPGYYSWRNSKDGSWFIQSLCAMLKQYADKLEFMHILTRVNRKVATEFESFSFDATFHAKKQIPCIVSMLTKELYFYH

[3] = target: T3, Sentrin-specific protease 7 (Homo sapiens, UniProt Q9BQF6); assay: inhibition of human SENP7 cleavage activity – biochemical, luminescence, set 2, SAR follow-up (AID 588600); type: functional
T3 sequence (Q9BQF6 whole entry): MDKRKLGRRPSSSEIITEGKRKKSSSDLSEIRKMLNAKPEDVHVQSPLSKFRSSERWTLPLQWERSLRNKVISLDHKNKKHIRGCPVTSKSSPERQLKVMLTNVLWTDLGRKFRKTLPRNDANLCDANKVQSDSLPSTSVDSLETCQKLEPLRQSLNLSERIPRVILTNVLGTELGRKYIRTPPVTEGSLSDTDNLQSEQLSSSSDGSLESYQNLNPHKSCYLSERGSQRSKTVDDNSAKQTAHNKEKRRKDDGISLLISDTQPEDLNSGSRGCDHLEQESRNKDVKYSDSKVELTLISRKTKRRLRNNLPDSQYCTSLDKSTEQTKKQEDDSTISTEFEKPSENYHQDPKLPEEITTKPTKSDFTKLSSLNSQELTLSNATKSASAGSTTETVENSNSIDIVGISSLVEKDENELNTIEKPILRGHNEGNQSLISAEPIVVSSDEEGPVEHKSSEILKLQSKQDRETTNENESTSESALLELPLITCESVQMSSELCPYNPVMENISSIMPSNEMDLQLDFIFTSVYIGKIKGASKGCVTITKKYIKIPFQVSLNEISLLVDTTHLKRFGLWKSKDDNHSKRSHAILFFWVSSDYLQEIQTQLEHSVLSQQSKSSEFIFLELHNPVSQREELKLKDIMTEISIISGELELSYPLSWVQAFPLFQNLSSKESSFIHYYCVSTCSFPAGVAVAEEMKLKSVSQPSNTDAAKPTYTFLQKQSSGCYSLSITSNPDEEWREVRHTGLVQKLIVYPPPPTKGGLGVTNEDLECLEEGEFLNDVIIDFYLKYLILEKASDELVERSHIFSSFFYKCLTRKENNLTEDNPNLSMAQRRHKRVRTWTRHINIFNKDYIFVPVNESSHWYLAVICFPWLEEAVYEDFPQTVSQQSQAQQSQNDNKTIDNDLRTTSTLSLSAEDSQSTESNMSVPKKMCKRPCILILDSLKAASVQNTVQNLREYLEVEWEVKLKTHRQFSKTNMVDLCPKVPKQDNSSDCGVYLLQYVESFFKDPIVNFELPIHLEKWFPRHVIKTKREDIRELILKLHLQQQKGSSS

[4] = target: T4, Sentrin-specific protease 6 (Homo sapiens, UniProt Q9GZR1); assay: SAR Analysis of small molecule inhibitors of Sentrin-specific protease 6 (SENP6) using a Luminescent assay. [Related pubchem assays (depositor defined):AID2582, AID2599]; type: functional
T4 sequence (Q9GZR1 whole entry): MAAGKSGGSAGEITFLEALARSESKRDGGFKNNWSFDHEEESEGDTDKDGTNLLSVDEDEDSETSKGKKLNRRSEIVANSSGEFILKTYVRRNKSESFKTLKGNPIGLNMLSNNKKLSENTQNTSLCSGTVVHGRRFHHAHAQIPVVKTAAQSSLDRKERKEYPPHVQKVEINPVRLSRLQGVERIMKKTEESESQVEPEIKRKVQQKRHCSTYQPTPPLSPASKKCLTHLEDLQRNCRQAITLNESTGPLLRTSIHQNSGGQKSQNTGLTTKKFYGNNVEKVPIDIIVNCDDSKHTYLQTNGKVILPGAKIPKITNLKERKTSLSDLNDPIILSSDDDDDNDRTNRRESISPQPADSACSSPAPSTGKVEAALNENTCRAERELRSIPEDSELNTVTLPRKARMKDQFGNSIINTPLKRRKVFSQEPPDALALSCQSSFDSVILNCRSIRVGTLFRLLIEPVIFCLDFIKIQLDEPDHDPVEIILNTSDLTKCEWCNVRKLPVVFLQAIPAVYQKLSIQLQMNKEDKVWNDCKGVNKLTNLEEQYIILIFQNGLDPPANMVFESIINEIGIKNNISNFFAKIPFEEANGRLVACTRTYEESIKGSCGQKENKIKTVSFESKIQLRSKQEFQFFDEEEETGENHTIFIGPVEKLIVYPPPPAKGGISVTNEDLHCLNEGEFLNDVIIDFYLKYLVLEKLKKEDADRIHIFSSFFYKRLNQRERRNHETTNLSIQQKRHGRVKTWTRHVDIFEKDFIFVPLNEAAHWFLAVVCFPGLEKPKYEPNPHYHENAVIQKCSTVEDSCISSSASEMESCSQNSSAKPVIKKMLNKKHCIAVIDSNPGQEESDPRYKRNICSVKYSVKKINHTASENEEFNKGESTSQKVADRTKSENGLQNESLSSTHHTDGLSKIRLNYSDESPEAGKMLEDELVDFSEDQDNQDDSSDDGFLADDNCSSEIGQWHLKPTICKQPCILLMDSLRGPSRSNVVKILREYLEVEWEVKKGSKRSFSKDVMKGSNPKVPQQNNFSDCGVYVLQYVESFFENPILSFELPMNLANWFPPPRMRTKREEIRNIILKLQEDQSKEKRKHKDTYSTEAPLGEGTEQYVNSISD

[5] = target: T4, Sentrin-specific protease 6; assay: inhibition of human SENP6 catalytic domain – biochemical, luminescence, set 2, SAR follow-up (AID 588598); type: functional
[6] = target: T3, Sentrin-specific protease 7; assay: inhibition of human SENP7 cleavage activity – biochemical, luminescence, SAR follow-up (AID 504497); type: functional
[7] = HEK-293T cell viability reduction – luminescence, B-cell screen hits, cytotoxicity control for BCR NF-kB inhibitor project, dose response (AID 489021); type: functional, cell-based;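 note: HEK-293T cells carrying an NF-kB luciferase reporter; cells exposed to compound for about 14 hours before viability readout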
[8] = target: Luciferin 4-monooxygenase (Photinus pyralis, UniProt P08659); assay: inhibition of purified Photinus pyralis luciferase – biochemical, dry powder samples, plate reader, dose response (AID 588451)
Chain of Luciferin 4-monooxygenase (P08659 whole entry): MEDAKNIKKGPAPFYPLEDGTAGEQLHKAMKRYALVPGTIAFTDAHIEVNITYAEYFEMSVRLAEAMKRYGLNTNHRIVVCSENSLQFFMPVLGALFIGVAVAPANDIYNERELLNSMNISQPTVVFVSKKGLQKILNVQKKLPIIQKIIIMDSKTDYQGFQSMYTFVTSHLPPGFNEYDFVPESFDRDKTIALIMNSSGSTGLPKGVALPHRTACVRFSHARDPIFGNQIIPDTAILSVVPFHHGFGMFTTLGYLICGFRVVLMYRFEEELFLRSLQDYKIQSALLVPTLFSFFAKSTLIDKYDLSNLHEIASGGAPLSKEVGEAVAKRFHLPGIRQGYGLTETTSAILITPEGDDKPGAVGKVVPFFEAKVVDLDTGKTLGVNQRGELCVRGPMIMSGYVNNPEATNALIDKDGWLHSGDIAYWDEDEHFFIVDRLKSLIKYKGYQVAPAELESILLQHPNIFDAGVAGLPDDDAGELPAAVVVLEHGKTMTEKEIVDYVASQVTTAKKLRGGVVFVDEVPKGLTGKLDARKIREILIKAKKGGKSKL

H4 [9] = assay: inhibitors of control reporter signal in H4 cells – cell-based, plate reader, dry powder samples, counter-screen for prion reporter project, dose response (AID 540255); type: functional; settings: Homo sapiens
H4 [10] = assay: Amyloid Precursor 5' UTR neuroblastoma cell reporter line Measured in Cell-Based System Using Plate Reader - 2078-04_Inhibitor_Dose_DryPowder_Activity. [Related pubchem assays (depositor defined):AID488894]; type: functional; settings: Homo sapiens
H4 [11] = assay: Inhibitors of Prion Protein 5' UTR mRNA Measured in Cell-Based System Using Plate Reader - 2078-01_Inhibitor_Dose_DryPowder_Activity. [Related pubchem assays (depositor defined):AID488894]; type: functional; settings: Homo sapiens
[12] = target: T5, Neuropeptides B/W receptor type 1 (Homo sapiens, UniProt P48145); assay: human NPBW1 receptor blockade, IC50 – cell-based, fluorescence, dose response, set 5, late-stage follow-up (AID 588566); type: functional
T5 sequence (P48145 whole entry): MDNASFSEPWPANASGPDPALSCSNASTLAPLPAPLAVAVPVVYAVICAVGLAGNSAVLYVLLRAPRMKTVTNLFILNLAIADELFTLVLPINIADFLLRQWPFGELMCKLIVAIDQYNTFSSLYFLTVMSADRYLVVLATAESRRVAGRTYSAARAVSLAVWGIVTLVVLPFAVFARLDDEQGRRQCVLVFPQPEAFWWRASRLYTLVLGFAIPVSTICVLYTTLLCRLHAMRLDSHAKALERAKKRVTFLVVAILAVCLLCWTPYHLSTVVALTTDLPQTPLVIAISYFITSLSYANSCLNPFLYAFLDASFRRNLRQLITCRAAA

[13] = target: Melanin-concentrating hormone receptor 1 (Homo sapiens, UniProt Q99705); assay: Late-stage fluorescence-based counterscreen for antagonists of the G-protein coupled receptor 7 (GPR7): cell-based dose response assay to identify antagonists of the melanin-concentrating hormone receptor 1 (MCHR1) Set 5.; type: functional
Chain of Melanin-concentrating hormone receptor 1 (Q99705 whole entry): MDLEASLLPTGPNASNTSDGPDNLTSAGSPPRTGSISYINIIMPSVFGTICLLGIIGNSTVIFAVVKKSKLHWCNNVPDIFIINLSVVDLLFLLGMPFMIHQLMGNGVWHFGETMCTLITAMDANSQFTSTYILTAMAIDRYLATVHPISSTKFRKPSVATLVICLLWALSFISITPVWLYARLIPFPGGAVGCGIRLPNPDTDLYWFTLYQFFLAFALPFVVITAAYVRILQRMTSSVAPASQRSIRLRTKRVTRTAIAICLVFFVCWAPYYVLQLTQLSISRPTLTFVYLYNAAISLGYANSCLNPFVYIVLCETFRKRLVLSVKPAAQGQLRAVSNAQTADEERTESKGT

## Fc1ccc(/C=C/c2noc(-c3ccccc3I)n2)cc1
[1]
  IC50: 23 µM (active)
[2]
  IC50: 7.41 µM (active)
Caspase-3
  IC50: 24 µM (active)
[3]
  IC50: 7.78 µM (active)
[4]
  IC50: 20 µM (active)
[5]
  IC50: 7.33 µM (active)
[6]
  IC50: 6.4 µM (active)

## Cc1ccc(NC(=O)O/N=C/c2c(C)nn(C(C)(C)C)c2C)cc1Cl
[7]
  IC50: > 80 µM (inactive)
[8]
  AC50: 14.8 µM (active)
H4 [9]
  AC50: 0.237 µM (active)
H4 [10]
  AC50: 0.125 µM (active)
H4 [11]
  AC50: 0.099 µM (active)

## CSc1ccc(Oc2cnn(Cc3cccc4ccccc34)c(=O)c2Cl)cc1
[12]
  IC50: 4.59 µM (active)
[13]
  IC50: 9.04 µM (active)

## O=C(C1CCCCN1Cc1cccc2ccccc12)N1CCN(c2ccc([N+](=O)[O-])cc2)CC1 (stereo unspecified)
[12]
  IC50: > 20 µM (inactive)
[13]
  IC50: > 20 µM (inactive)

— ChEMBL document CHEMBL1201862, “PubChem BioAssay data set” (2004)
